According to patent US20210145802A1, “THERAPY FOR OPHTHALMOLOGICAL CONDITIONS” (WREN THERAPEUTICS LIMITED, priority 2018, published 2021):

Target: T1, Aβ42 (Homo sapiens, UniProt P05067)
T1 construct: […]; made in house; host or cells: E. coli BL21 Gold (DE3)
Test: ThT kinetic assay of Aβ42 fibril formation (unseeded)
Format: biochemical
Settings: 2 μM Aβ42; 5× drug:protein concentration
Excerpt: The recombinant Aβ(M1-42) peptide ([…]-SNKGAIIGLMVGGVVIA [SEQ ID NO: 1]), here called Aβ42, was expressed in the E. coli BL21 Gold (DE3) strain (Stratagene, CA, U.S.A.) and purified as described previously with slight modifications. Briefly, the purification procedure involved sonication of E. coli cells, dissolution of inclusion bodies in 8 M urea, and ion exchange in batch mode on diethylaminoethyl cellulose resin and lyophylization. The lyophilized fractions were further purified using Superdex 75 HR 26/60 column (GE Healthcare, Buckinghamshire, U.K.) and eluates were analyzed using SDS-PAGE for the presence of the desired protein product. The fractions containing the recombinant protein were combined, frozen using liquid nitrogen, and lyophilized again.
Except for Netoglitazone, which was custom synthesised by GVK BIO, all small molecules were purchased with a purity greater than 99%. Small molecules were first solubilized in 100% DMSO to a concentration of 5 mM, and then diluted in the peptide solution to reach a final DMSO concentration of maximum 1-3%. We verified that the addition of DMSO in the reaction mixture has no effect on Aβ42 aggregation.
Solutions of monomeric peptides were prepared by dissolving the lyophilized Aβ42 peptide in 6 M GuHCl. Monomeric forms were purified from potential oligomeric species and salt using a Superdex 75 10/300 GL column (GE Healthcare) at a flowrate of 0.5 mL/min, and were eluted in 20 mM sodium phosphate buffer, pH 8 supplemented with 200 μM EDTA and 0.02% NaN3. The centre of the peak was collected, and the peptide concentration was determined from the absorbance of the integrated peak area using ε280=1490 L mol^−1 cm^−1. The obtained monomer was diluted with buffer to the desired concentration and supplemented with 20 μM Thioflavin T (ThT) from a 1 mM stock. All samples were prepared in low binding Eppendorf tubes on ice using careful pipetting to avoid introduction of air bubbles. Each sample was then pipetted into multiple wells of a 96-well half-area, low-binding, clear bottom and PEG coating plate (Corning 3881), 80 μL per well. Aβ42 kinetics have been performed in the absence or the presence of Netoglitazone, Mitoglitazone, Rosiglotazone, Rivoglitazone, Pioglitazone, Ciglitazone, Englitazone, Darglitazone, Troglitazone and B alaglitazone.

T1 sequence (P05067 671-713): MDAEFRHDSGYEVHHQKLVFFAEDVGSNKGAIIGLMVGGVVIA

Q: `Cn1c(COc2ccc(CC3SC(=O)NC3=O)cc2)nc2ccccc2c1=O` (stereo not shown) [Balaglitazone] was tested. Which “delay of Aβ42 aggregation” value did it give?
A: little to no delay

Q: Which “delay of Aβ42 aggregation” value does the source give for `Cc1oc(-c2ccccc2)nc1CCC(=O)c1ccc(CC2SC(=O)NC2=O)cc1` (stereo not shown) [Darglitazone] here?
A: observed to delay

Q: With `CCc1ccc(C(=O)COc2ccc(CC3SC(=O)NC3=O)cc2)nc1` (stereo not shown) [Mitoglitazone] as the molecule, how does the “delay of Aβ42 aggregation” value read?
A: little to no delay

Q: With `COc1ccc2nc(COc3ccc(CC4SC(=O)NC4=O)cc3)n(C)c2c1` (stereo not shown) [Rivoglitazone] as the molecule, how does the “delay of Aβ42 aggregation” value read?
A: little to no delay
